The text below walks through data of publication PMC4741719, “Acquisition of a single EZH2 D1 domain mutation confers acquired resistance to EZH2-targeted inhibitors” (Oncotarget, 2015).

The test system of experiment [1] is Pfeiffer cells (Parental). Kind of experiment: Viability assay (Cell-Titer-Glo, 6 days), parental Pfeiffer cells. The note with it: Homo sapiens. The class given is cell-based.
Another experiment concerns E-100 Pfeiffer cells. The experiment in a line: Viability assay, EPZ-6438-resistant E-100 Pfeiffer cells. Type of experiment: cell-based. To be noted: Homo sapiens, read-out: IC50 cell viability.
For the next experiment, the system named is E-200 Pfeiffer cells. The experiment in a line: Viability assay, EPZ-6438-resistant E-200 Pfeiffer cells. The class given is cell-based. To be noted: Homo sapiens, read-out: IC50 cell viability.
In experiment [2] the test system is H3K27me3 in Pfeiffer cells (Parental). Kind of experiment: Cellular H3K27me3 AlphaLISA, parental Pfeiffer cells. The class given is cell-based. The note with it: Homo sapiens, Figure 3B. The method, then:
Cells were plated at 500 cells/well in 10% DMEM, 50 uL/well in 384 well plates. […] DMSO (0.1%) was used as a vehicle control. Plates were incubated for 72 hours at 37°C. […] Plates were read using AlphaLISA protocol on Envision (Perkin Elmer).
(In Alpha technology, singlet oxygen from a donor bead excites a nearby acceptor bead.)

The subject of experiment [3] is H3K27me3 in E-200 Pfeiffer cells. The experiment in a line: Cellular H3K27me3 AlphaLISA, E-200 Pfeiffer cells. The class given is cell-based. To be noted: Homo sapiens; Pfeiffer E-200; Figure 3B. The method, then: Cells were plated at 500 cells/well in 10% DMEM, 50 uL/well in 384 well plates. […] DMSO (0.1%) was used as a vehicle control. Plates were incubated for 72 hours at 37°C. […] Plates were read using AlphaLISA protocol on Envision (Perkin Elmer). […] Pfeiffer cells were treated overnight with 100 μg/mL of N-ethyl-N-nitrosourea (ENU; Sigma Aldrich, St. […] After 7 days, cells were dosed again with fresh compound and grown until outgrowth (3 to 4 weeks). […] Ion semiconductor sequencing (Ion Torrent) and single molecule real time sequencing (PacBio) were performed at Molecular MD and Expression analysis (Quintiles), respectively.

In experiment [4] the test system is Pfeiffer cells stably-expressing Y111D/A677G EZH2 mutant. Kind of experiment: Viability assay, Pfeiffer cells stably-expressing Y111D/A677G EZH2. The note with it: Homo sapiens, read-out: IC50 cell viability.
Experiment [5] concerns Pfeiffer cells stably-expressing Y111D/Y641F EZH2 mutant. Kind of experiment: Viability assay, Pfeiffer cells stably-expressing Y111D/Y641F EZH2.
Experiment [6] relates to Pfeiffer cells stably expressing Y111D/A677G/H689A. The experiment in a line: Viability assay, Pfeiffer cells stably expressing Y111D/A677G/H689A EZH2. To be noted: Homo sapiens, read-out: IC50 cell viability.
The subject of experiment [7] is H3K27me3 in Pfeiffer cells stably-expressing Y111D/A677G EZH2 mutant. Kind of experiment: Cellular H3K27me3 AlphaLISA, Pfeiffer cells stably-expressing Y111D/A677G EZH2. To be noted: Homo sapiens, read-out: IC50 H3K27me3.
Experiment [8] relates to DLBCL and rhabdoid INI1-deficient patients. Also on record: method as in earlier work. The note with it: phase 1 clinical trial, monotherapy; cited from earlier work.

Structures are written as SMILES. Like-named read-outs stand apart in the source and are kept apart here.

For the molecule `CC[C@H](C)n1cc(C)c2c(C(=O)NCc3c(C)cc(C)[nH]c3=O)cc(-c3ccc(N4CCNCC4)nc3)cc21` [GSK126], the IC50 in experiment [1] (Parental Pfeiffer, Figure 1C, three independent experiments) was determined as 23 ± 5 nM; in experiment [1] (Pfeiffer Parental, Figure 3C), 33 ± 7 nM; in experiment [1] (Pfeiffer Parental, Figure 4B) it was 30 ± 5 nM; in the experiment on E-100 Pfeiffer cells (E-100, Unwash, Figure 1E), 4030 ± 370 nM; with E-100 Pfeiffer cells (E-100, Wash 8 weeks (drug withdrawal), Figure 1E), 1220 ± 89 nM; in the experiment on E-100 Pfeiffer cells (E-100 Pfeiffer, Figure 1C), 3960 ± 1040 nM. Besides, the IC50 in the experiment on E-200 Pfeiffer cells (E-200, Unwash, Figure 1E) was 3150 ± 508 nM; in the experiment on E-200 Pfeiffer cells (E-200, Wash 8 weeks (drug withdrawal), Figure 1E), 2010 ± 1560 nM; with E-200 Pfeiffer cells (E-200 Pfeiffer, Figure 1C), 3980 ± 994 nM; in [2], 36 ± 27 nM; in experiment [3], more than 10000 nM; in experiment [4], 2670 ± 1370 nM. Besides, the IC50 was found to be 111 ± 35 nM in [5] (Homo sapiens, Pfeiffer, read-out: IC50 cell viability); 25 ± 9 nM in [6]; 5000 ± 1590 nM in experiment [7]. Further, in experiment [5] (Y111D/Y641F, both growth and H3K27 tri-methylation), the “increase in IC50 values” was 3–4 fold.

On to `CCN(c1cc(-c2ccc(CN3CCOCC3)cc2)cc(C(=O)NCc2c(C)cc(C)[nH]c2=O)c1C)C1CCOCC1` [EPZ-6438], for which, in experiment [8], the clinical response result is reported as “durable objective responses”.

What is called IC50 is the concentration that inhibits the measured activity by half.
